IC50 data for one compound are collected here from patent US5215900A, “Microbial transformation of a substituted pyridinone using streptomyces sp. MA6804” (Merck & Co., Inc., priority 1991, dated 1993).

For the assay, the target named is T1, recombinant HIV reverse transcriptase (HIV RTR) (Human immunodeficiency virus type 1 group M subtype B, UniProt P04585).
T1 construct: recombinant HIV reverse transcriptase (HIV RTR)
The experiment in a line: Reverse Transcriptase Assay. The class given is biochemical. How it is done: The assay measures the incorporation of tritiated deoxyguanosine monophosphate by recombinant HIV reverse transcriptase (HIV RTR) (or other RT) into acid-precipitable cDNA at the Km values of dGTP and poly r(C).oligo d(G)12-18.
Thirty uL of a reaction mixture containing equal volumes of: 500 mM Tris.HCl (pH 8.2), 300 mM MgCl2, 1200 mM KCl, 10 mM DTT, 400 μg/mL poly r(c).oligo d(G) [prepared by dissolving 1.5 mg (25 U) poly r(C).oligo d(G) in 1.5 ml sterile distilled H2 O and diluting to 400 μg/ml], 0.1 μuCi/μl [^3 H] dGTP, 160 μM dGTP, was added to 10 μl sterile distilled H2 O, 2.5 μl of potential inhibitor. Ten μL of 3.2 nM purified HIV RTR in tubes. The mixture was incubated at 37° C. for 45 minutes.
After incubation was complete, the tubes were cooled in ice for 5 minutes. Ice-cold 13% TCA containing 10 mM NaPPi (200 μl) was added and the mixture incubated on ice for 30 minutes. The precipitated cDNA was removed by filtration using presoaked glass filters [TCA, NaPPi ]. The precipitate was then washed with 1N HCl, 10 mM NaPPi. The filter discs were then counted in a scintillation counter.
Under these conditions [dGTP] and poly r(C).oligo d(G)12-18 each are approximately equal to the appropriate Km value. Approximately 5-6,000 cpm of [^3 H] GMP are incorporated into acid-precipitable material. The RT reaction is concentration-and time-dependent.

In the case of `Cc1[nH]c(=O)c(NCc2nc3c(C)ccc(C)c3o2)cc1C(C)O` (stereo not shown) [compound (I), 3-[(4,7-Dimethylbenzoxazol-2-yl)-methylamino]-5-(1-hydroxyethyl)-6-methyl-2(1H)-pyridinone], the concentration for half-maximal inhibition (IC50) was roughly 430 nM.
